Measurements reported in patent US12071436B2, “Anti-parasitic compounds and uses thereof” (Memorial Sloan-Kettering Cancer Center, priority 2016, dated 2024).
pIC50: −log10 of the molar value. Like-named read-outs stand apart in the source and are kept apart here.

What was measured:
Plasma stability = format: in vitro ADME; details: C57BL/6; 10 μM in undiluted mouse plasma, 37° C., out to four hours; read-out: plasma stability (t1/2, mouse)
Description: To evaluate the plasma stability of selected compounds, 10 μM of each selected compound was incubated with undiluted plasma. Plasma was freshly obtained from C57BBl\6 mice drawn in the vivarium and used immediately. Plasma was brought to 37° C. within a 96-well plate and then the compound is introduced via a DMSO stock solution. The sample was continually shaken at 37° C. and aliquots are removed at multiple time points out to four hours. Aliquots were added to acetonitrile (5× v:v) to stop any enzymatic activity and held on ice. At the end of the assay, the samples were centrifuged through a Millipore Multiscreen Solvinter 0.45 micron low binding PTFE hydrophilic filter plate and analyzed by LC-MS/MS. Data was log transformed and represented as half-life.

[1] = Metabolic stability in mice liver microsomes (MLM), 0.25 mg/mL; format: in vitro ADME; details: mouse, pH 7.4, 1 μM compound, 0.25 mg/mL microsomes, NADPH, read-out: microsomal stability (t1/2, mouse): 0.25 mg/mL hepatic microsomes
Description: To evaluate the metabolic stability of compounds 21 and 37 in mice liver microsomes (MLM), a 1120 μL aliquot of potassium phosphate buffer (50 mM, pH 7.4) containing mice liver microsomes (0.357 mg/mL) was added to individual 2 mL tubes (final concentration 0.25 mg/mL). Imipramine in MLM was run as positive controls. Test compounds (compound 21 or compound 37) and positive control compounds (1 mM DMSO stocks) were directly spiked into respective tubes to prepare a concentration of 1.428 μM (final concentration 1 μM). From the above mix, 70 μL was added to individual wells of 96 well reaction plates and pre-incubated in a 37° C. water bath for 5 min. All the reactions were initiated by adding 30 μL of 3.33 mM NADPH (final concentration 1 mM). Reactions without NADPH and heat inactivated microsomes minus NADPH (0 min and 60 min) were also incubated to rule out non-NADPH metabolism or chemical instability in the incubation buffer. All reactions were terminated using 100 μL of ice-cold acetonitrile containing internal standard (glipizide—2 μM) at 0, 5, 15 and 60 min. The plates were centrifuged at 4000 RPM for 15 min and 100 μL aliquots were submitted for analysis by LC-M/MS. Samples were monitored for parent compound disappearance in Multiple reaction monitoring (MRM) mode using LC-MS/MS.

HepG2 = assay: Cytotoxicity screening in HepG2 (CellTiter Glo, fluorescence microscopy); format: cell-based; details: Homo sapiens, 48 hours
Description: To evaluate the cytotoxicity of selected compounds, cell viability assays (CellTiter Glo) were conducted. Each compound (compound 21 or compound 37) was plated in triplicate starting at their respective stock concentration. They were serially diluted column-wise for ten 3× dilutions using DMSO as the diluent. Staurosporine was used as positive control for DRC (dose response curve), and was plated starting at 1.25 mM. This plate was used as a source plate to make the assay plates by transferring 0.1 μl into 25 μl assay volume to reach the right working concentration for each compound. HepG2 and MRC5 were plated at a density of 1500 cells/25 μl in well in the assay plate and allowed to settle overnight. 0.1 μL of compounds was then transferred from the source plate, into the cell assay plates. The cells were left to incubate with the compounds for 48 hours, after which, 25 μL of Promega Cell Titer-Glo was added to each well, and allowed to incubate at room temperature with shaking for 20 minutes. RLU's (Relative Light Units) for each well were then recorded on a BioTek Synergy NEO. Fluorescence microscopy was also used to evaluate the cytotoxicity of selected compounds. Cells were plated at a density of 1500 cells/25 μl in well in a 384 wells plate the day before incubation with the drugs. The following day, 0.1 μl of the source plate are added to the assay plate. Then, 25 μl of a fluorophores mixture containing Hoechst 33342, Syto17 diluted in Eagle's Minimum Essential Medium (EMEM) was added to each well. Plates are read after 48 hours of incubation in the ImageXpress instrument (Molecular Devices) using the appropriate filters.

[2] = Plasma pharmacokinetics in female BALB/c mice (ip and po); format: in vivo, mouse; details: 50 mg/kg; for bioavailability / AUC / Cmax / half-life: female, BALB/c, mice; for bioavailability / AUC / Cmax / half-life / Tmax: mouse, plasma; for bioavailability: oral, read-out: Relative Bioavailability, Frel (po/ip); for Tmax / plasma concentrations quantifiable till: female BALB/c mice
Description: To evaluate the plasma pharmacokinetics of selected compounds, a group of eighteen female mice were administered divided into two groups; Group 1 (intraperitoneal (i.p.)) and Group 2 (oral administration (p.o.)) with compound 21 or compound 37 solution formulation at a dose of 50 mg/kg by both the routes in 5% NMP, 5% Solutol and 90% Normal saline. Blood samples (approximately […]) were collected from retro orbital plexus of each mouse under light isoflurane anesthesia such that the samples were obtained at 0.083, 0.25, 0.5, 1, 2, 4, 8, 12 and 24 hours (i.p.); and pre-dose, 0.25, 0.5, 1, 2, 4, 8, 12 and 24 hour (p.o.). The blood samples were collected from a set of three mice at each time point in labeled micro centrifuge tube containing K2EDTA as anticoagulant. Plasma samples were separated by centrifugation at 4000 rpm for 10 min and stored below −70° C. until bioanalysis. After collection of blood sample, animals were humanely euthanized by carbon dioxide asphyxiation to collect liver and heart from Group 1 and Group 2 at 1, 8 and 24 hours. The collected tissues were rinsed in PBS and were homogenized with cold phosphate buffer saline (pH 7.4) of nine times the weight of liver and two times the weight of heart tissue and stored below −70° C. until bio-analysis. Total volume was ten and three times the tissue weights of liver and heart, respectively. All samples were processed for analysis by protein precipitation using acetonitrile and analyzed with fit-for-purpose LC-MS/MS method (LLOQ: 1.01 ng/mL for plasma; 20.20 ng/g for liver and 6.06 ng/g for heart tissue). […] Exemplary results for compounds 21 (2015-FoleyC-021) and 37 (2015-FoleyC-037) are shown above in Table 2.

[3] = read-out: HepG2 IC50, Cell Count
[4] = read-out: HepG2 IC50, Cellular ATP
[5] = read-out: HepG2 IC50, Membrane Integrity
[6] = ip, read-out: PK (ip, 50 mg/kg) Area under the curve (AUC)
[7] = ip, read-out: PK (ip, 50 mg/kg) Cmax
[8] = ip, read-out: PK (ip, 50 mg/kg) t1/2 (converted)
[9] = po, read-out: PK (po, 50 mg/kg) AUC
[10] = po, read-out: PK (po, 50 mg/kg) Cmax
[11] = po, read-out: PK (po, 50 mg/kg) t1/2 (converted)
[12] = ip, single intraperitoneal dose

Row | SMILES | half-life at 10 μM (Plasma stability) [h] | half-life at 1 μM [1] [h] | pIC50 (HepG2; [3]) | pIC50 (HepG2; [4]) | pIC50 (HepG2; [5]) | bioavailability [2] [%] | AUC [2, 6] [µM·h] | Cmax [2, 7] [µM] | half-life [2, 8] [h] | AUC [2, 9] [µM·h] | Cmax [2, 10] [µM] | half-life [2, 11] [h] | Tmax [2, 12] [h] | Tmax ([2]; single oral dose) [h] | plasma concentrations quantifiable till ([2]; single intraperitoneal dose) [h] | plasma concentrations quantifiable till ([2]; single oral dose) [h]
1 | CN(C)CC#Cc1cccc(-c2nc(C(=O)NCc3ccc4c(c3)OCO4)cc3c2[C@@H](CCO)N([S@+]([O-])C(C)(C)C)C3)c1 [compound 21, (R)-N-(Benzo[d][1,3]dioxol-5-ylmethyl)-2-((R)-tert-butylsulfinyl)-4-(3-(3-(dimethyl-amino)prop-1-yn-1-yl)phenyl)-3-(2-hydroxyethyl)-2,3-dihydro-1H-pyrrolo[3,4-c]pyridine-6-carboxamide] | > 4 | 0.767 | 4.29 | 4.28 | 4.21 | 48 | 50.1 | 19.8 | 2.8 | 24.3 | 11.8 | 3.5 | 0.25 | 1 | 24 | 24
2 | CN(C)CC#Cc1cccc(-c2nc(C(=O)N[C@@H]3CCN(Cc4ccccc4)C3)cc3c2[C@@H](CCO)N([S@+]([O-])C(C)(C)C)C3)c1 [compound 37, (R)-N-((R)-1-Benzylpyrrolidin-3-yl)-2-((R)-tert-butylsulfinyl)-4-(3-(3-(dimethylamino)prop-1-yn-1-yl)phenyl)-3-(2-hydroxyethyl)-2,3-dihydro-1H-pyrrolo[3,4-c]pyridine-6-carboxamide] | > 4 | 0.217 | 4.25 | 4.27 | 4.04 | 47 | 11.1 | 6.8 | 6.3 | 5.2 | 1.7 | 4.3 | 0.25 | 1 | 24 | 24
